Biological target: T1, human recombinant IL-17A (Homo sapiens, UniProt Q16552)
T1 construct: purchased R&D Systems 7955-IL/CF
T1 sequence (Q16552 24-155): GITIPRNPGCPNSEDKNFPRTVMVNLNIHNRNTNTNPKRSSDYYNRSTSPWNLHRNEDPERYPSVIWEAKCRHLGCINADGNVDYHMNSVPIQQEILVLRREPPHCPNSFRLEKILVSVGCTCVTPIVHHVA
Experiment: IL-17A AlphaLISA assay (block binding of IL-17A to its receptor IL-17RA)
Settings: compounds pre-incubated with the IL-17A for 24 h at room temperature; read-out: AlphaLISA pIC50 (converted)
Procedure: The ability of the compounds to block binding of IL-17A to its receptor, IL-17RA, was analysed in a competition assay using AlphaLISA technology (Perkin Elmer). The assay is a bead based AlphaLISA where the IL-17RA is captured on the acceptor bead via an Fc tag and IL-17A is captured on the streptavidin donor bead via a biotinylated anti-IL17A antibody.
Assay buffer was prepared by adding 0.05% Tween-20 (v/v) and 0.1% BSA to Phosphate Buffered Saline (PBS). The assay was carried out in 384-well white low volume plates (Corning 4512). 10 µL of a 7.5 nM stock of human recombinant IL-17A (R&D Systems 7955-IL/CF) diluted in assay buffer was dispensed into the assay plate and compounds or DMSO vehicle control were added in a volume of 75 nL using a D300 dispenser (Hewlett Packard). The compounds were pre-incubated with the IL-17A for 24 h at room temperature (or for 30 min, where indicated by * in Table A below) prior to addition of 5 μL of a 5 nM stock of human recombinant IL-17RA/Fc chimera (R&D Systems 177-IR-100) diluted in assay buffer. The IL-17A was incubated with the receptor for a further 90 minutes at room temperature before addition of 5 μL of a mixture of anti-human Fc IgG acceptor beads (75 μg/mL, Perkin Elmer AL103C) and anti-IL-17A biotin conjugated antibody (5 nM, Enzo Life Sciences, ENZ-ABS278-0100) in assay buffer. After a further 30 min incubation at room temperature, 5 μL of streptavidin donor beads ([…], Perkin Elmer 6760002S) were added and the plate was incubated for 3 h in the dark.
The luminescence signal was measured using an Enspire plate reader (Perkin Elmer) with excitation at 680 nm and emission at 615 nm. Data were analysed using GraphPad Prism and fitted to a 4-parameter logistic equation. The IC50 values were calculated using the DMSO vehicle as the negative control and a high concentration (6 μM) of a reference IL-17A inhibitor as the positive control.
Activity of the Example compounds is reported as a PIC50 value in Table A.

| Structure (SMILES) | IC50 |
| --- | --- |
| Cc1c[n+]([O-])cc(C)c1-c1ccc(NC(=O)[C@@H](NC(=O)c2ccnn2C)C(c2ccccc2)c2ccccc2)cc1 [Example 26, (S)-3,5-dimethyl-4-(4-(2-(1-methyl-1H-pyrazole-5-carboxamido)-3,3-diphenylpropanamido)phenyl)pyridine 1-oxide] | 0.00794 µM |
| COc1c[n+]([O-])cc(OC)c1-c1ccc(NC(=O)[C@@H](NC(=O)c2ccnn2C)C(c2ccccc2)c2ccccc2)cc1 [Example 27, (S)-3,5-dimethoxy-4-(4-(2-(1-methyl-1H-pyrazole-5-carboxamido)-3,3-diphenylpropanamido)phenyl)pyridine 1-oxide] | 0.00501 µM |
| COc1c[n+]([O-])cc(F)c1-c1ccc(NC(=O)[C@@H](NC(=O)c2ccnn2C)C(c2ccccc2)c2ccccc2)cc1 [Example 28, (S)-3-fluoro-5-methoxy-4-(4-(2-(1-methyl-1H-pyrazole-5-carboxamido)-3,3-diphenylpropanamido)phenyl)pyridine 1-oxide] | 0.00794 µM |
| Cc1c(-c2c(F)cc(NC(=O)[C@@H](NC(=O)c3ccnn3C)C(c3ccccc3)c3ccccc3)cc2F)ccc(=O)n1C [Example 29, (S)—N-(1-((4-(1,2-dimethyl-6-oxo-1,6-dihydropyridin-3-yl)-3,5-difluorophenyl)amino)-1-oxo-3,3-diphenylpropan-2-yl)-1-methyl-1H-pyrazole-5-carboxamide] | 0.02 µM |
| COc1cnccc1-c1c(F)cc(NC(=O)[C@@H](NC(=O)c2ccnn2C)C(c2ccccc2)c2ccccc2)cc1F [Example 30, (S)—N-(1-((3,5-difluoro-4-(3-methoxypyridin-4-yl)phenyl)amino)-1-oxo-3,3-diphenylpropan-2-yl)-1-methyl-1H-pyrazole-5-carboxamide] | 0.0398 µM |
| Cc1nn(Cc2ccccc2)c(C)c1-c1ccc(NC(=O)[C@@H](NC(=O)c2ccnn2C)C(c2ccccc2)c2ccccc2)cc1 [Example 31, (S)—N-(1-((4-(1-benzyl-3,5-dimethyl-1H-pyrazol-4-yl)phenyl)amino)-1-oxo-3,3-diphenylpropan-2-yl)-1-methyl-1H-pyrazole-5-carboxamide] | 0.631 µM |
| Cc1n[nH]c(C)c1-c1ccc(NC(=O)[C@@H](NC(=O)c2ccnn2C)C(c2ccccc2)c2ccccc2)cc1 [Example 32, (S)—N-(1-((4-(3,5-dimethyl-1H-pyrazol-4-yl)phenyl)amino)-1-oxo-3,3-diphenylpropan-2-yl)-1-methyl-1H-pyrazole-5-carboxamide] | 0.0126 µM |
| Cc1c(-c2ccc(NC(=O)[C@@H](NC(=O)c3ccnn3C)[C@H]3CC[C@H](C)CC3)cc2)ccc(=O)n1C [Example 33, N—((S)-2-((4-(1,2-dimethyl-6-oxo-1,6-dihydropyridin-3-yl)phenyl)amino)-1-((1r,4S)-4-methylcyclohexyl)-2-oxoethyl)-1-methyl-1H-pyrazole-5-carboxamide] | 0.0794 µM |
| CCn1nccc1C(=O)N[C@H](C(=O)Nc1ccc(-c2ccc(=O)[nH]n2)c(F)c1)C(c1ccccc1)c1ccccc1 [Example 34, (S)-1-ethyl-N-(1-((3-fluoro-4-(6-oxo-1,6-dihydropyridazin-3-yl)phenyl)amino)-1-oxo-3,3-diphenylpropan-2-yl)-1H-pyrazole-5-carboxamide] | 0.2 µM |
| Cn1nccc1C(=O)N[C@H](C(=O)Nc1ccc(-c2cc[nH]c(=O)c2)c(F)c1)C(c1ccccc1)c1ccccc1 [Example 35, (S)—N-(1-((3-fluoro-4-(2-oxo-1,2-dihydropyridin-4-yl)phenyl)amino)-1-oxo-3,3-diphenylpropan-2-yl)-1-methyl-1H-pyrazole-5-carboxamide] | 0.0251 µM |
| Cn1nccc1C(=O)N[C@H](C(=O)Nc1ccc(-c2ncnc3c2CCN3)cc1)C(c1ccccc1)c1ccccc1 [Example 40, (S)—N-(1-((4-(6,7-dihydro-5H-pyrrolo[2,3-d]pyrimidin-4-yl)phenyl)amino)-1-oxo-3,3-diphenylpropan-2-yl)-1-methyl-1H-pyrazole-5-carboxamide] | 0.0631 µM |

Now from value to molecule:

| IC50 | Structure (SMILES) |
| --- | --- |
| 0.0316 µM | COc1cnccc1-c1ccc(NC(=O)[C@@H](NC(=O)c2ccnn2C)C(c2ccccc2)c2ccccc2)cc1F [Example 24, (S)—N-(1-((3-fluoro-4-(3-methoxypyridin-4-yl)phenyl)amino)-1-oxo-3,3-diphenylpropan-2-yl)-1-methyl-1H-pyrazole-5-carboxamide] |
| 0.00501 µM | COc1c[n+]([O-])ccc1-c1ccc(NC(=O)[C@@H](NC(=O)c2ccnn2C)C(c2ccccc2)c2ccccc2)cc1 [Example 25, (S)-3-methoxy-4-(4-(2-(1-methyl-1H-pyrazole-5-carboxamido)-3,3-diphenylpropanamido)phenyl)pyridine 1-oxide] |
| 0.0794 µM | Cn1nccc1C(=O)N[C@H](C(=O)Nc1ccc(-c2ccncc2F)cc1)C(c1ccccc1)c1ccccc1 [Example 36, (S)—N-(1-((4-(3-fluoropyridin-4-yl)phenyl)amino)-1-oxo-3,3-diphenylpropan-2-yl)-1-methyl-1H-pyrazole-5-carboxamide] |
| 0.0398 µM | Cc1ncc(C)c(-c2ccc(NC(=O)[C@@H](NC(=O)c3ccnn3C)C(c3ccccc3)c3ccccc3)cc2)n1 [Example 37, (S)—N-(1-((4-(2,5-dimethylpyrimidin-4-yl)phenyl)amino)-1-oxo-3,3-diphenylpropan-2-yl)-1-methyl-1H-pyrazole-5-carboxamide] |
| 0.1 µM | Cc1cc(-c2ccc(NC(=O)[C@@H](NC(=O)c3ccnn3C)C(c3ccccc3)c3ccccc3)cc2)c(C)cn1 [Example 38, (S)—N-(1-((4-(2,5-dimethylpyridin-4-yl)phenyl)amino)-1-oxo-3,3-diphenylpropan-2-yl)-1-methyl-1H-pyrazole-5-carboxamide] |
| 0.2 µM | Cn1nccc1C(=O)N[C@H](C(=O)Nc1ccc(-c2cnc3ccccn23)cc1)C(c1ccccc1)c1ccccc1 [Example 39, (S)—N-(1-((4-(imidazo[1,2-a]pyridin-3-yl)phenyl)amino)-1-oxo-3,3-diphenylpropan-2-yl)-1-methyl-1H-pyrazole-5-carboxamide] |
| 0.2 µM | Cn1nccc1C(=O)N[C@H](C(=O)Nc1ccc(-c2cnc3ncccn23)cc1)C(c1ccccc1)c1ccccc1 [Example 41, (S)—N-(1-((4-(imidazo[1,2-a]pyrimidin-3-yl)phenyl)amino)-1-oxo-3,3-diphenylpropan-2-yl)-1-methyl-1H-pyrazole-5-carboxamide] |
| 0.0501 µM | Cn1nccc1C(=O)N[C@H](C(=O)Nc1ccc(-c2ccncc2CO)cc1)C(c1ccccc1)c1ccccc1 [Example 42, (S)—N-(1-((4-(3-(hydroxymethyl)pyridin-4-yl)phenyl)amino)-1-oxo-3,3-diphenylpropan-2-yl)-1-methyl-1H-pyrazole-5-carboxamide] |
| 0.126 µM | Cn1nccc1C(=O)N[C@H](C(=O)Nc1ccc(-c2ccncc2C#N)cc1)C(c1ccccc1)c1ccccc1 [Example 43, (S)—N-(1-((4-(3-cyanopyridin-4-yl)phenyl)amino)-1-oxo-3,3-diphenylpropan-2-yl)-1-methyl-1H-pyrazole-5-carboxamide] |
| 0.251 µM | Cn1nccc1C(=O)N[C@H](C(=O)Nc1ccc(-c2ccnc3c2CCC3)cc1)C(c1ccccc1)c1ccccc1 [Example 44, (S)—N-(1-((4-(6,7-dihydro-5H-cyclopenta[b]pyridin-4-yl)phenyl)amino)-1-oxo-3,3-diphenylpropan-2-yl)-1-methyl-1H-pyrazole-5-carboxamide] |
